Results as given in patent US11198696B2, “Substituted xanthines as inhibitors of transient receptor potential cation channel subfamily c, member 5 activity” (Boehringer Ingelheim International GmbH, priority 2018, dated 2021).

biological target: T1, TRPC5 (Homo sapiens, UniProt Q9UL62); assay: Assay A: Determination of TRPC5-Inhibition (whole-cell patch clamp); assay type: cell-based; conditions: closest prior art compounds of WO2014/143799, TRPC5-expressing HEK293 TREx cells, LaCl3-activated current
T1 construct: expressed in transfected cells; host or cells: HEK293 TREx cells, inducible TRPC5 expression, induced 20-48 hours
T1 sequence (Q9UL62 1-973): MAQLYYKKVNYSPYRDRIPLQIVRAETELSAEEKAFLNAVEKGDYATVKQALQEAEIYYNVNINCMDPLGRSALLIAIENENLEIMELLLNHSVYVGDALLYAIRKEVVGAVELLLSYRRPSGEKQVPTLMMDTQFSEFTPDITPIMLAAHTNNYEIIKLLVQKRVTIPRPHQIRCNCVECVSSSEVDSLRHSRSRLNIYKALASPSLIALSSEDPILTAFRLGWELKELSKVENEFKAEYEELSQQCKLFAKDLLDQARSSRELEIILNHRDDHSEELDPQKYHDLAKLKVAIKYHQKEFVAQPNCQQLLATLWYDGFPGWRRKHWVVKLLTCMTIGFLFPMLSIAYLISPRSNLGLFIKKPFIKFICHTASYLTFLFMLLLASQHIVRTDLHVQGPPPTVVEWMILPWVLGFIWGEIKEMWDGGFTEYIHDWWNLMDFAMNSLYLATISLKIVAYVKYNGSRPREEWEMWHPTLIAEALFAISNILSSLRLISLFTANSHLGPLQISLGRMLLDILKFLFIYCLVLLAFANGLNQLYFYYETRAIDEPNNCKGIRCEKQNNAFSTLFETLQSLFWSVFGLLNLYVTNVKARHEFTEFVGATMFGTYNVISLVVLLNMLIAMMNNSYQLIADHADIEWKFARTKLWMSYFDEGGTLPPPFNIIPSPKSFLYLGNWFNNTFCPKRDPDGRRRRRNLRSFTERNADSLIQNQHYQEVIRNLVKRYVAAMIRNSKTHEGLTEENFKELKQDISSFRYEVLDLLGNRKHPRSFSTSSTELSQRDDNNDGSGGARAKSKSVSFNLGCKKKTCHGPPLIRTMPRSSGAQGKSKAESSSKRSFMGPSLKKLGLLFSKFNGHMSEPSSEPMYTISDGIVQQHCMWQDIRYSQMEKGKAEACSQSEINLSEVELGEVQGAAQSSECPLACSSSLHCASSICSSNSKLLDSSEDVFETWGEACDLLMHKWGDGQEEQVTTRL
Description: Assay A: Determination of TRPC5-Inhibition
Patch clamp experiments permit the detection of currents through the TRPC5 channel in a cell line. In normal whole-cell patch clamp recordings, a glass electrode is brought into contact with a single cell and a high-resistance (gigaohm) seal is established with the cell membrane. The membrane is then ruptured to achieve the whole-cell configuration, permitting control of the voltage of the cell membrane and measurement of currents flowing across the membrane using the amplifier attached to the electrode and resulting in the replacement of cytoplasm with the pipette solution. A perfusion system permits control of the extracellular solution, including the addition of blockers and activators of the current. The current can be activated by including 1.4 μM free Ca2+ in the pipette (intracellular) solution, and 80 μM LaCl3 in the extracellular solution.
TRPC5 cells were induced 20-48 hours, removed from growth plates, and replated at low density (to attain good single-cell physical separation) on glass coverslips for measurement. In some cases, cells were grown in low density overnight on glass coverslips. Patch clamp recordings were made in the whole-cell mode with a holding potential of −40 mV. Every 5 seconds, a voltage ramp was applied from −120 to +100 mV, 400 ms in duration. Currents elicited were quantified at −80 mV and +80 mV. The internal solution consisted of 140 mM cesium aspartate, 10 mM HEDTA, 2 mM CaCl2, 2.27 mM MgCl2 and 10 mM HEPES, pH 7.2, with 1,400 nM calculated free Ca2+. The external solution consisted of 150 mM NaCl, 4.5 mM 15 KCl, 1 mM MgCl2, 2 mM CaCl2, 10 mM HEPES, 10 mM glucose, 1 mM EGTA, pH 7.4. Upon addition of LaCl3, TRPC5 current was induced only in TRPC5-expressing cells and not in parental HEK293 TREx cells. Removal of the LaCh stimulus causes most of the current to go away. Potential blockers were tested for ability to block both inward and outward currents in the continued presence of LaCl3.
IC50 of a compound of the invention was estimated by testing the compound 500 nM. […] Compounds blocking 50% or more at 500 nM are retested at multiple concentrations, and the % block is fitted by standard equations to determine IC50 accurately, using a 5/6 point concentration-response experiment.

SMILES	IC50 [pM]
COc1ccc(-c2nc3c(c(=O)n(CCCO)c(=O)n3C)n2Cc2ccc(F)cc2)cc1 [Example 465 in WO2014/143799, reference compound]	52000

same assay, conditions: compounds of the present invention, TRPC5-expressing HEK293 TREx cells, LaCl3-activated current

IC50 [pM]	SMILES
312	Cc1nc(OC2CC(F)(F)C2)ccc1-c1nc2c(c(=O)n(CCCO)c(=O)n2C(C)C)n1Cc1ccc(F)cc1 [Example 25]
171	CCn1c(=O)n(CCCO)c(=O)c2c1nc(-c1ccc(OC3CCC3C)nc1C(F)(F)F)n2Cc1ccccc1 (stereo not shown) [Example 12]
812	CCn1c(=O)n(CCCO)c(=O)c2c1nc(-c1ccc(OC3CCC3)nc1)n2Cc1ccc(SC(F)(F)F)cc1 [Example 46]
265	Cc1nc(OC2CC=CC2)ccc1-c1nc2c(c(=O)n(CCCO)c(=O)n2C(C)C)n1Cc1ccccc1 [Example 22]
< 32	Cc1nc(OC2CCC2C)ccc1-c1nc2c(c(=O)n(CCCO)c(=O)n2C(C)C)n1Cc1ccc(F)cc1 (stereo not shown) [Example 1]
1580	CCn1c(=O)n(CCCO)c(=O)c2c1nc(-c1ccc(OC3CCC3)nc1C)n2Cc1ccccc1 [Example 52]
1010	CCn1c(=O)n(CCCO)c(=O)c2c1nc(-c1ccc(OC3CCC3)nc1)n2Cc1ccc(C2CC2)cc1 [Example 49]
3160	CCn1c(=O)n(CCCO)c(=O)c2c1nc(-c1ccc(OC3CCC3C)nc1)n2Cc1ccccc1 (stereo not shown) [Example 63]
750	CCn1c(=O)n(CCCO)c(=O)c2c1nc(-c1ccc(OC3CC=CC3)nc1C)n2Cc1ccc(F)cc1 [Example 45]
643	CCn1c(=O)n(CCCO)c(=O)c2c1nc(-c1ccc(OC3CCC3C)nc1)n2Cc1ccc(Cl)cc1 (stereo not shown) [Example 40]
104	CCn1c(=O)n(CCCO)c(=O)c2c1nc(-c1ccc(OC3CC4CCC3C4)nc1C)n2Cc1ccc(F)cc1 (stereo not shown) [Example 7]
3370	CCn1c(=O)n(CCCO)c(=O)c2c1nc(-c1ccc(OC3CCC3)nc1F)n2Cc1ccc(F)cc1 [Example 62]
1590	CCn1c(=O)n(CCCO)c(=O)c2c1nc(-c1ccc(OC3CCC3)nc1)n2Cc1ccc(Cl)cc1F [Example 53]
485	CCn1c(=O)n(CCCO)c(=O)c2c1nc(-c1ccc(OC3CC(C)C3)nc1C)n2Cc1ccccc1 (stereo not shown) [Example 34]
713	CCC(C)n1c(=O)n(CCCO)c(=O)c2c1nc(-c1ccc(OC3CCC3)nc1C)n2Cc1ccccc1 (stereo not shown) [Example 42]
859	CCn1c(=O)n(CCCO)c(=O)c2c1nc(-c1ccc(OC3CC(F)(F)C3)nc1C)n2Cc1ccc(F)cc1 [Example 47]
2660	C#Cc1ccc(Cn2c(-c3ccc(OC4CCC4)nc3)nc3c2c(=O)n(CCCO)c(=O)n3CC)cc1 [Example 57]
236	Cc1nc(OC2CCC2C)ccc1-c1nc2c(c(=O)n(CCCO)c(=O)n2C(C)C)n1Cc1ccccc1 (stereo not shown) [Example 19]

Second part, the compound before the results:

SMILES	IC50 [pM]
CCn1c(=O)n(CCCO)c(=O)c2c1nc(-c1ccc(OC3CCC3)nc1)n2Cc1ccc(F)cc1 [Example 64]	2720
Cc1nc(OC2CCC2)ccc1-c1nc2c(c(=O)n(CCCO)c(=O)n2C(C)C)n1Cc1ccccc1 [Example 30]	426
CCn1c(=O)n(CCCO)c(=O)c2c1nc(-c1cc(F)c(OC3CCC3)nc1C)n2Cc1ccccc1 [Example 39]	628
CCn1c(=O)n(CCCO)c(=O)c2c1nc(-c1ccc(OC3CCCC3)nc1C)n2Cc1ccc(Cl)cc1 [Example 23]	275
CCn1c(=O)n(CCCO)c(=O)c2c1nc(-c1ccc(OC3CCC3C)nc1C)n2Cc1ccccc1 (stereo not shown) [Example 60]	2090
CCn1c(=O)n(CCCO)c(=O)c2c1nc(-c1ccc(OC3CCC3)nc1)n2Cc1ccc(Br)cc1 [Example 38]	613
CCn1c(=O)n(CCCO)c(=O)c2c1nc(-c1ccc(OC3CCC3C)nc1)n2Cc1ccc(F)cc1 (stereo not shown) [Example 51]	1360
CCn1c(=O)n(CCCO)c(=O)c2c1nc(-c1ccc(OC3CCC3)nc1)n2Cc1ccc(Cl)cc1 [Example 48]	873
Cc1nc(OC2CC(F)(F)C2)ccc1-c1nc2c(c(=O)n(CCCO)c(=O)n2C(C)C)n1Cc1ccccc1 [Example 43]	732
CCn1c(=O)n(CCCO)c(=O)c2c1nc(-c1ccc(OC3CCCC3)nc1C)n2Cc1ccccc1 [Example 61]	2430
CCn1c(=O)n(CCCO)c(=O)c2c1nc(-c1ccc(OC3C[C@@H]4C[C@@H]4C3)nc1C)n2Cc1ccc(F)cc1 (stereo partly shown) [Example 59]	1730
CCn1c(=O)n(CCCO)c(=O)c2c1nc(-c1ccc(OC3CCC3)nc1)n2Cc1cc(F)cc(F)c1 [Example 58]	3670
CCn1c(=O)n(CCCO)c(=O)c2c1nc(-c1ccc(OC3CCC3(C)C)nc1C)n2Cc1ccc(F)cc1 (stereo not shown) [Example 11]	163
CCn1c(=O)n(CCCO)c(=O)c2c1nc(-c1ccc(OC3CCC3C)nc1C(F)(F)F)n2Cc1ccc(F)cc1 (stereo not shown) [Example 15]	184
Cc1nc(OC2CCCCC2)ccc1-c1nc2c(c(=O)n(CCCO)c(=O)n2C(C)C)n1Cc1ccccc1 [Example 2]	95
Cc1nc(OC2CCC2)ccc1-c1nc2c(c(=O)n(CCCO)c(=O)n2C2CCC2)n1Cc1ccccc1 [Example 16]	190
CCn1c(=O)n(CCCO)c(=O)c2c1nc(-c1ccc(OC3CC(C)C3)nc1C)n2Cc1ccc(Cl)cc1 (stereo not shown) [Example 17]	199
CCn1c(=O)n(CCCO)c(=O)c2c1nc(-c1ccc(O[C@H]3CCC[C@@H]3C)nc1C)n2Cc1ccc(Cl)cc1 (racemic) [Example 21]	249
CCn1c(=O)n(CCCO)c(=O)c2c1nc(-c1ccc(OC3CC(C)C3)nc1C)n2Cc1ccc(F)cc1 (stereo not shown) [Example 18]	207
CCn1c(=O)n(CCCO)c(=O)c2c1nc(-c1ccc(OC3CC(C)(C)C3)nc1C)n2Cc1ccc(F)cc1 [Example 24]	281
CCn1c(=O)n(CCCO)c(=O)c2c1nc(-c1ccc(OC3CCC3)nc1)n2Cc1ccc(C(F)(F)F)cc1 [Example 54]	1600
CCn1c(=O)n(CCCO)c(=O)c2c1nc(-c1ccc(OC3CCC3)nc1C)n2Cc1ccc(F)cc1 [Example 50]	1160
CCn1c(=O)n(CCCO)c(=O)c2c1nc(-c1ccc(OC3CCC3C)nc1C)n2Cc1ccc(Cl)cc1 (stereo not shown) [Example 3]	99
CCn1c(=O)n(CCCO)c(=O)c2c1nc(-c1ccc(OC3CC(C)(C)C3)nc1C)n2Cc1ccccc1 [Example 32]	460
Cc1nc(OC2CCCC2)ccc1-c1nc2c(c(=O)n(CCCO)c(=O)n2C(C)C)n1Cc1ccccc1 [Example 9]	130
CCn1c(=O)n(CCCO)c(=O)c2c1nc(-c1ccc(OC3CCC3C)nc1C)n2Cc1ccc(Br)cc1 (stereo not shown) [Example 14]	178
CCC(C)n1c(=O)n(CCCO)c(=O)c2c1nc(-c1ccc(OC3CCCC3)nc1C)n2Cc1ccccc1 (stereo not shown) [Example 37]	603
Cc1nc(OC2CC(C)C2)ccc1-c1nc2c(c(=O)n(CCCO)c(=O)n2C(C)C)n1Cc1ccc(F)cc1 (stereo not shown) [Example 5]	< 100
Cc1nc(OC2CC(C)C2)ccc1-c1nc2c(c(=O)n(CCCO)c(=O)n2C(C)C)n1Cc1ccccc1 (stereo not shown) [Example 26]	< 320
CCn1c(=O)n(CCCO)c(=O)c2c1nc(-c1ccc(OC3CCC(C(F)(F)F)CC3)nc1C)n2Cc1ccc(F)cc1 (stereo not shown) [Example 35]	531
